# Source: EP0469548B1, “4-Amino-delta4-steroids and their use as 5alpha-reductase inhibitors” (MERRELL PHARMACEUTICALS INC., priority 1990, dated 1992)
# Target: T1, steroid 5α-reductase enzyme (Homo sapiens, UniProt P31213)
# T1 construct: Microsomal preparations of the steroid 5α-reductase enzyme (protein) were obtained from human prostate tissue; from tissue; host or cells: human prostate tissue (microsomal preparation)
# T1 sequence (P31213 1-254): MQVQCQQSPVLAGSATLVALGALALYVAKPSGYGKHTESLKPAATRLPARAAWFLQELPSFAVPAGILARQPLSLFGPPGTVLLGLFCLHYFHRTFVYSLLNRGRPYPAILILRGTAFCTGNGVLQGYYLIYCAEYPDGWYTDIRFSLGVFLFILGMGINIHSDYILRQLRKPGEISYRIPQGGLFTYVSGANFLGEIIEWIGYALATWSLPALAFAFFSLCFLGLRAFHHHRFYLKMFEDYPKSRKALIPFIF
# Experiment: 5α-reductase inhibition in microsomal preparations (conversion of testosterone to dihydrotestosterone, HPLC)
# Format: biochemical
# Protocol: Microsomal preparations of the steroid 5α-reductase enzyme (protein) were obtained from human prostate tissue and stored in aliquots. Protein concentration was determined prior to use of the samples. In the method itself, individual assays for 5α-reductase activity contained 0.1M phosphate citrate buffer, pH 5.6, 1mM EDTA, 7 to 22 µg of microsomal protein, 1mM NADPH, 5 mM glucose-6-phosphate, 1 IU/ml glucose-6-phosphate dehydrogenase, 1,2-³H-testosterone, and test compound, dissolved in dimethyl sulfoxide and then diluted in phosphate-citrate buffer to yield a final assay concentration of 0.1% (v/v) dimethyl sulfoxide. The same buffer and the same quantity of dimethyl sulfoxide, without any test compound was used for the control assays. The total assay volume was 100 µl and assays were performed in duplicate. The reaction was initiated by the addition of the testosterone, and incubated for 30 minutes at 25°C. The assay is linear with time to 30 minutes.
# Depending on the nature of the inhibition, testosterone concentration was typically varied from 0.15 µM (approximately 0.5 Km) to 10 Km with radioactive label constant at 0.15 µCi per assay. The amount of test compound added was varied to provide final concentrations of 1 nM to 100 µM. The reaction was quenched by the addition of 50 volumes of chloroform:methanol (2:1). The steroids were then extracted and separated by high pressure liquid chromatography and the amounts of testosterone and dihydrotestosterone present were measured to determine the percent conversion of testosterone to dihydrotestosterone and to calculate the 5α-reductase activity. The activity of the test compound was then expressed as the IC₅₀, or the concentration of test compound that produced a 50% inhibition of the testosterone conversion. When compounds of the present invention were tested in this way, the following results were observed: […]
row,Structure (SMILES),IC50
1,"CC(C)N(C(=O)[C@H]1CC[C@H]2[C@@H]3CCC4=C(N)C(=O)CC[C@]4(C)[C@H]3CC[C@]12C)C(C)C [4-Amino-N,N-bis(1-methylethyl)-3-oxoandrost-4-ene-17β-carboxamide]",104 nM
2,"CC(C)(C)NC(=O)[C@H]1CC[C@H]2[C@@H]3CCC4=C(N)C(=O)CC[C@]4(C)[C@H]3CC[C@]12C [4-Amino-N-(1,1-dimethylethyl)-3-oxoandrost-4-ene-17β-carboxamide]",59 nM
3,"CC(=O)[C@H]1CC[C@H]2[C@@H]3CCC4=C(N)C(=O)CC[C@]4(C)[C@H]3CC[C@]12C [4-Aminopregn-4-ene-3,20-dione]",50 nM
4,C[C@H](CO)[C@H]1CC[C@H]2[C@@H]3CCC4=C(N)C(=O)CC[C@]4(C)[C@H]3CC[C@]12C [(20S)-4-Amino-21-hydroxy-20-methylpregn-4-en-3-one],54 nM
